Patent US6399542B1, “Alkoxyimino-substituted bicyclic compounds compositions containing the same and method of making such compounds” (Agro-Kanesho Co., Ltd., priority 1997, dated 2002)
Like-named read-outs stand apart in the source and are kept apart here.

Tests used:
Assay type in all cases: in vivo
Erysiphe graminis = assay: Effects on Barley powdery mildew (preventive spray test); conditions: lesions counted seven days after inoculation
Puccinia recondita = assay: Effect on Wheat brown rust (preventive spray test); conditions: 7 days after inoculation
Pyricularia oryzae = conditions: Rice blast, 7 days after inoculation
[1] = tested on: Psecidoperonospora cubensis; assay: Effect on Cucumber downy mildew (preventive spray test); conditions: 7 days after inoculation
Chochliobolus miyabeanus = assay: Effect on Rice brown spot (preventive spray test); conditions: 7 days after inoculation
Phytophthora infestans = conditions: Tomato late blight, 5 days after inoculation
[2] = conc. of active ingredient 4 ppm
[3] = conc. of active ingredient 20 ppm
[4] = conc. of active ingredient 100 ppm

Row | SMILES | Preventive rate (%) (Erysiphe graminis; [2]) | Preventive rate (%) (Erysiphe graminis; [3]) | Preventive rate (%) (Erysiphe graminis; [4]) | Preventive rate (%) (Puccinia recondita; [2]) | Preventive rate (%) (Puccinia recondita; [3]) | Preventive rate (%) (Puccinia recondita; [4]) | Preventive rate (%) (Pyricularia oryzae; [2]) | Preventive rate (%) (Pyricularia oryzae; [3]) | Preventive rate (%) (Pyricularia oryzae; [4]) | Preventive rate (%) [1, 2] [%] | Preventive rate (%) [1, 3] [%] | Preventive rate (%) [1, 4] [%] | Preventive rate (%) (Chochliobolus miyabeanus; [2]) | Preventive rate (%) (Chochliobolus miyabeanus; [3]) | Preventive rate (%) (Chochliobolus miyabeanus; [4]) | Preventive rate (%) (Phytophthora infestans; [2]) | Preventive rate (%) (Phytophthora infestans; [3]) | Preventive rate (%) (Phytophthora infestans; [4])
1 | COC=C(C(=O)OC)c1ccccc1COc1ccc2c(c1C)OC(C)CC2=NOC (racemic) [d-8] | 100 | 100 | 100 | 100 | 100 | 100 | 77 | 83 | 100 | – | – | – | – | – | – | – | – | –
2 | CNC(=O)C(=NOC)c1ccccc1COc1ccc2c(c1C)CC(C)C2=NOC (racemic) [f-4] | – | – | – | – | – | – | – | – | – | 100 | 100 | 100 | 68 | 70 | 90 | – | – | –
3 | COC=C(C(=O)OC)c1ccccc1COc1ccc2c(c1C)C(C)CC2=NOC (racemic) [f-5] | 97 | 100 | 100 | 100 | 100 | 100 | 72 | 89 | 94 | 99 | 100 | 100 | 53 | 94 | 98 | 92 | 100 | 100
4 | CO/C=C(/C(=O)OC)c1ccccc1COc1ccc2c(c1C)OC(C)C2=NOC (single isomer, unassigned) [b-4] | 98 | 100 | 100 | 100 | 100 | 100 | – | 89 | 95 | – | – | – | – | – | – | – | 97 | 97
5 | CO/C=C(/C(=O)OC)c1ccccc1COc1ccc2c(c1C)OC(C)C2=NOC (single isomer, unassigned) [b-5] | 98 | 98 | 100 | 100 | 100 | 100 | – | 84 | 95 | – | – | – | – | – | – | – | 91 | 97
6 | CON=C(C(=O)OC)c1ccccc1COc1cc2c(cc1C)C(=NOC)C(C)C2 (single isomer, unassigned) [f-10] | – | – | – | – | – | – | 85 | 85 | 90 | – | – | 100 | – | – | – | – | 97 | 98
7 | CNC(=O)C(=NOC)c1ccccc1COc1cc2c(cc1C)C(=NOC)C(C)C2 (single isomer, unassigned) [f-11] | 100 | 100 | 100 | 100 | 100 | 100 | 72 | 83 | 100 | 100 | 100 | 100 | – | – | – | 100 | 100 | 100
8 | COC=C(C(=O)OC)c1ccccc1COc1ccc2c(c1)OCC2=NOC [a-2] | – | 79 | 100 | 98 | 100 | 100 | – | 95 | 97 | – | 100 | 100 | – | 93 | 96 | 97 | 97 | 100
9 | CCON=C1COc2c1ccc(OCc1ccccc1/C(=N\OC)C(=O)NC)c2C [a-36] | – | – | – | 100 | 100 | 100 | – | 90 | 99 | – | 100 | 100 | 69 | 93 | 96 | – | 91 | 98
10 | CCCON=C1COc2c1ccc(OCc1ccccc1/C(=N\OC)C(=O)NC)c2C [a-42] | – | 88 | 100 | 100 | 100 | 100 | – | 90 | 98 | 100 | 100 | 100 | – | 85 | 91 | – | 98 | 98
11 | C=CCON=C1COc2c1ccc(OCc1ccccc1/C(=N\OC)C(=O)NC)c2C [a-60] | – | 100 | 100 | 100 | 100 | 100 | – | 86 | 91 | 100 | 100 | 100 | – | – | – | – | 97 | 97
12 | CON=C1c2ccc(OCc3ccccc3/C(=N\OC)C(=O)OC)c(C)c2OC1C (stereo not shown) [b-6] | – | 89 | 90 | – | – | – | – | 84 | 88 | – | 100 | 100 | – | 70 | 90 | – | 92 | 94
13 | C=C(Cl)CON=C1CCOc2c1ccc(OCc1ccccc1C(=NOC)C(=O)NC)c2C [c-64] | – | 96 | 100 | 99 | 99 | 100 | – | 80 | 98 | – | – | – | – | – | – | – | – | –
14 | CON=C(C(=O)OC)c1ccccc1COc1ccc2c(c1C)OC(C)(C)CC2=NOC [d-6] | – | – | – | – | 92 | 99 | 71 | 77 | 92 | – | – | – | – | – | – | – | – | –
15 | COC=C(C(=O)OC)c1ccccc1COc1ccc2c(c1)CCC2=NO [e-1] | – | – | – | – | – | – | – | – | – | – | – | – | 87 | – | – | – | – | –
16 | CON=C1CCc2cc(OCc3ccccc3C(=NOC)C(=O)OC)c(C)cc21 [e-26] | – | 100 | 100 | – | 98 | 98 | – | – | – | 75 | 100 | 100 | – | 71 | 91 | – | 97 | 100
17 | C#CCON=C1CCc2c1ccc(OCc1ccccc1C(=NOC)C(=O)NC)c2C [e-61] | – | 98 | – | 100 | 100 | 100 | – | – | – | 100 | 100 | 100 | 84 | 90 | 90 | – | 98 | 100
